Measurements reported in PubChem BioAssay AID1963981 (Molecular Pharmacology Branch, DTP, NCI, 2024).

Tested on: 354836-022-R-J1-PDC multicell spheroid viability
Experiment: Anticancer human tumor 354836-022-R-J1-PDC patient-derived head and neck squamous cell carcinoma cell line growth inhibition [PI3K]
Settings: for IC50: curve of first compound; for viability, T/C: stronger effect = lower value
Procedure, shortened: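 Agents were dosed from a top concentration near clinical Cmax (otherwise 10 microM) in half-log decrements, alone or combined with PI3K inhibitors. The spheroids contain tumor cells plus endothelial (HUVEC) and MSC stroma; viability is measured.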

[1] = second compound 0.00316 µM, first compound 0.0316 µM
[2] = second compound 0.00316 µM, first compound 0.1 µM
[3] = second compound 0.00316 µM, first compound 0.316 µM
[4] = second compound 0.00316 µM, first compound 1 µM
[5] = second compound 0.00316 µM, first compound 3.16 µM
[6] = second compound 0.00316 µM, first compound 10 µM
[7] = second compound 0.01 µM, first compound 0.0316 µM
[8] = second compound 0.01 µM, first compound 0.1 µM
[9] = second compound 0.01 µM, first compound 0.316 µM
[10] = second compound 0.01 µM, first compound 1 µM
[11] = second compound 0.01 µM, first compound 3.16 µM
[12] = second compound 0.01 µM, first compound 10 µM
[13] = second compound 0.0316 µM, first compound 0.0316 µM
[14] = second compound 0.0316 µM, first compound 0.1 µM
[15] = second compound 0.0316 µM, first compound 0.316 µM
[16] = second compound 0.0316 µM, first compound 1 µM
[17] = second compound 0.0316 µM, first compound 3.16 µM
[18] = second compound 0.0316 µM, first compound 10 µM
[19] = second compound 0.1 µM, first compound 0.0316 µM
[20] = second compound 0.1 µM, first compound 0.1 µM
[21] = second compound 0.1 µM, first compound 0.316 µM
[22] = second compound 0.1 µM, first compound 1 µM
[23] = second compound 0.1 µM, first compound 3.16 µM
[24] = second compound 0.1 µM, first compound 10 µM
[25] = second compound 0.316 µM, first compound 0.0316 µM
[26] = second compound 0.316 µM, first compound 0.1 µM
[27] = second compound 0.316 µM, first compound 0.316 µM
[28] = second compound 0.316 µM, first compound 1 µM
[29] = second compound 0.316 µM, first compound 3.16 µM
[30] = second compound 0.316 µM, first compound 10 µM
[31] = second compound 1 µM, first compound 0.0316 µM
[32] = second compound 1 µM, first compound 0.1 µM
[33] = second compound 1 µM, first compound 0.316 µM
[34] = second compound 1 µM, first compound 1 µM
[35] = second compound 1 µM, first compound 3.16 µM
[36] = second compound 1 µM, first compound 10 µM
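Also: spheroids exposed to agents for seven days before the viability read.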

CC1(C)CCC(CN2CCN(c3ccc(C(=O)NS(=O)(=O)c4ccc(NCC5CCOCC5)c([N+](=O)[O-])c4)c(Oc4cnc5[nH]ccc5c4)c3)CC2)=C(c2ccc(Cl)cc2)C1 + COc1c(OCCCN2CCOCC2)ccc2c3n(c(=NC(=O)c4cnc(N)nc4)nc12)CCN3
IC50 (second compound 0.00316 µM): 4.46 µM
IC50 (second compound 0.01 µM): 3.75 µM
IC50 (second compound 0.0316 µM): 3.73 µM
IC50 (second compound 0.1 µM): 1.75 µM
IC50 (second compound 0.316 µM): < 0.0316 µM
IC50 (second compound 1 µM): < 0.0316 µM
viability, T/C [1]: 85.4%
viability, T/C [2]: 97.5%
viability, T/C [3]: 97%
viability, T/C [4]: 96.5%
viability, T/C [5]: 69.2%
viability, T/C [6]: 5.16%
viability, T/C [7]: 92.6%
viability, T/C [8]: 87.3%
viability, T/C [9]: 95%
viability, T/C [10]: 95.5%
viability, T/C [11]: 58%
viability, T/C [12]: 4.01%
viability, T/C [13]: 69%
viability, T/C [14]: 76.2%
viability, T/C [15]: 78.8%
viability, T/C [16]: 79%
viability, T/C [17]: 58%
viability, T/C [18]: 3.73%
viability, T/C [19]: 58.9%
viability, T/C [20]: 50.6%
viability, T/C [21]: 49%
viability, T/C [22]: 61.7%
viability, T/C [23]: 44.6%
viability, T/C [24]: 2.56%
viability, T/C [25]: 12.8%
viability, T/C [26]: 12.5%
viability, T/C [27]: 13.7%
viability, T/C [28]: 14.3%
viability, T/C [29]: 7.93%
viability, T/C [30]: 1.71%
viability, T/C [31]: 1.99%
viability, T/C [32]: 1.2%
viability, T/C [33]: 1.79%
viability, T/C [34]: 1.5%
viability, T/C [35]: 1.66%
viability, T/C [36]: 0.72%

C[C@@H](NC(=O)c1ncnc(N)c1Cl)c1ncc(C(=O)Nc2cc(C(F)(F)F)c(Cl)cn2)s1 + COc1c(OCCCN2CCOCC2)ccc2c3n(c(=NC(=O)c4cnc(N)nc4)nc12)CCN3
IC50 (second compound 0.00316 µM): > 10 µM
IC50 (second compound 0.01 µM): > 10 µM
IC50 (second compound 0.0316 µM): > 10 µM
IC50 (second compound 0.1 µM): > 10 µM
IC50 (second compound 0.316 µM): < 0.0316 µM
IC50 (second compound 1 µM): < 0.0316 µM
viability, T/C [1]: 91.8%
viability, T/C [2]: 112%
viability, T/C [3]: 96.9%
viability, T/C [4]: 109%
viability, T/C [5]: 98.5%
viability, T/C [6]: 97%
viability, T/C [7]: 105%
viability, T/C [8]: 101%
viability, T/C [9]: 96.5%
viability, T/C [10]: 119%
viability, T/C [11]: 102%
viability, T/C [12]: 78.1%
viability, T/C [13]: 76%
viability, T/C [14]: 81.8%
viability, T/C [15]: 86.5%
viability, T/C [16]: 86.9%
viability, T/C [17]: 84.2%
viability, T/C [18]: 71.5%
viability, T/C [19]: 58.2%
viability, T/C [20]: 43.7%
viability, T/C [21]: 55.6%
viability, T/C [22]: 55%
viability, T/C [23]: 55.1%
viability, T/C [24]: 47.9%
viability, T/C [25]: 11.2%
viability, T/C [26]: 14.4%
viability, T/C [27]: 13.4%
viability, T/C [28]: 18%
viability, T/C [29]: 24.4%
viability, T/C [30]: 9.94%
viability, T/C [31]: 2.2%
viability, T/C [32]: 1.73%
viability, T/C [33]: 1.92%
viability, T/C [34]: 1.84%
viability, T/C [35]: 2.33%
viability, T/C [36]: 1.65%

Cn1ncnc1[C@H]1c2n[nH]c(=O)c3cc(F)cc(c23)N[C@@H]1c1ccc(F)cc1 + COc1c(OCCCN2CCOCC2)ccc2c3n(c(=NC(=O)c4cnc(N)nc4)nc12)CCN3
IC50 (second compound 0.00316 µM): > 0.1 µM
IC50 (second compound 0.01 µM): > 0.1 µM
IC50 (second compound 0.0316 µM): > 0.1 µM
IC50 (second compound 0.1 µM): 0.0149 µM
IC50 (second compound 0.316 µM): < 0.000316 µM
IC50 (second compound 1 µM): < 0.000316 µM
viability, T/C (second compound 0.00316 µM, first compound 0.000316 µM): 98.6%
viability, T/C (second compound 0.00316 µM, first compound 0.001 µM): 102%
viability, T/C (second compound 0.00316 µM, first compound 0.00316 µM): 95.6%
viability, T/C (second compound 0.00316 µM, first compound 0.01 µM): 101%
viability, T/C [1]: 98.2%
viability, T/C [2]: 88.5%
viability, T/C (second compound 0.01 µM, first compound 0.000316 µM): 93.8%
viability, T/C (second compound 0.01 µM, first compound 0.001 µM): 103%
viability, T/C (second compound 0.01 µM, first compound 0.00316 µM): 90.5%
viability, T/C (second compound 0.01 µM, first compound 0.01 µM): 93.1%
viability, T/C [7]: 95.3%
viability, T/C [8]: 76.2%
viability, T/C (second compound 0.0316 µM, first compound 0.000316 µM): 76%
viability, T/C (second compound 0.0316 µM, first compound 0.001 µM): 77.7%
viability, T/C (second compound 0.0316 µM, first compound 0.00316 µM): 88%
viability, T/C (second compound 0.0316 µM, first compound 0.01 µM): 83.4%
viability, T/C [13]: 83.1%
viability, T/C [14]: 69.8%
viability, T/C (second compound 0.1 µM, first compound 0.000316 µM): 50%
viability, T/C (second compound 0.1 µM, first compound 0.001 µM): 50.7%
viability, T/C (second compound 0.1 µM, first compound 0.00316 µM): 52%
viability, T/C (second compound 0.1 µM, first compound 0.01 µM): 57.5%
viability, T/C [19]: 57.8%
viability, T/C [20]: 37%
viability, T/C (second compound 0.316 µM, first compound 0.000316 µM): 15.2%
viability, T/C (second compound 0.316 µM, first compound 0.001 µM): 16.3%
viability, T/C (second compound 0.316 µM, first compound 0.00316 µM): 14.5%
viability, T/C (second compound 0.316 µM, first compound 0.01 µM): 13.9%
viability, T/C [25]: 13.5%
viability, T/C [26]: 7.08%
viability, T/C (second compound 1 µM, first compound 0.000316 µM): 2.45%
viability, T/C (second compound 1 µM, first compound 0.001 µM): 1.53%
viability, T/C (second compound 1 µM, first compound 0.00316 µM): 1.71%
viability, T/C (second compound 1 µM, first compound 0.01 µM): 2.18%
viability, T/C [31]: 2.36%
viability, T/C [32]: 1.28%
